Laboratory results published in ChEMBL document CHEMBL4311993, “Structure-activity relationship study of NPP1 inhibitors based on uracil-N1-(methoxy)ethyl-β-phosphate scaffold” (Eur J Med Chem, 2019).
Activity calls are given as the source filed them.

What was measured:
[1] = target: P2Y purinoceptor 4 (Homo sapiens) (UniProt P51582); experiment: Antagonist activity at human P2Y4 receptor expressed in AD293 cells assessed as inhibition of UTP-induced inositol-1-phosphate accumulation at 0.1 to 100 uM; assay type: functional, cell-based
P2Y purinoceptor 4 (Homo sapiens), sequence (P51582 whole entry): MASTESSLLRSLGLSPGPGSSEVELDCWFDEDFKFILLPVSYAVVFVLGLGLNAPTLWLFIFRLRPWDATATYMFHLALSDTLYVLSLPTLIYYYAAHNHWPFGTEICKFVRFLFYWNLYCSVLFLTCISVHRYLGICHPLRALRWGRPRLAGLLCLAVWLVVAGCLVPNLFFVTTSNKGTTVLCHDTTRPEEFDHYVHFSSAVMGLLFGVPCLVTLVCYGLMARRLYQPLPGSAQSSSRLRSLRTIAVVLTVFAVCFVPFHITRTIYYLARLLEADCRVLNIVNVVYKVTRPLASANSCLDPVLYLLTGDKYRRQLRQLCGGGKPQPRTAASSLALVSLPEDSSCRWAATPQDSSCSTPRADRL

[2] = target: T1, Ectonucleoside triphosphate diphosphohydrolase 3 (Homo sapiens) (UniProt O75355); experiment: Inhibition of human NTPdase-3 expressed in COS7 cell membranes at 100 uM using ATP as substrate preincubated for 3 mins followed by susbtrate addition and measured after 10 mins by malachite green dye based method
T1 sequence (whole entry): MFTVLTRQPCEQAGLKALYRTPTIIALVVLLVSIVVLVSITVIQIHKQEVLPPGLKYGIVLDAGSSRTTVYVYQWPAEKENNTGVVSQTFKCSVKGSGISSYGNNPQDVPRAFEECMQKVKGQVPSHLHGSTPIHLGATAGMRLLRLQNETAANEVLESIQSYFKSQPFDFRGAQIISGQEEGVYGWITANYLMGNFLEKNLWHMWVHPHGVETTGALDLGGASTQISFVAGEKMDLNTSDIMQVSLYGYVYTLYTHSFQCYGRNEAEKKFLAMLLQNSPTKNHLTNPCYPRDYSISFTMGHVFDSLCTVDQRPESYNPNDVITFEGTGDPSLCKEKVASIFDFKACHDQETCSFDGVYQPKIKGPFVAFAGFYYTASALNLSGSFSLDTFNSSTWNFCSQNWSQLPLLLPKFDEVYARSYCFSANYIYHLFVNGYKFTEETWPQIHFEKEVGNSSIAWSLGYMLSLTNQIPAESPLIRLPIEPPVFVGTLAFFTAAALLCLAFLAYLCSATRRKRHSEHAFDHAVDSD

[3] = target: T2, Ectonucleoside triphosphate diphosphohydrolase 8 (Homo sapiens) (UniProt Q5MY95); experiment: Inhibition of human NTPdase-8 expressed in COS7 cell membranes at 100 uM using ATP as substrate preincubated for 3 mins followed by susbtrate addition and measured after 10 mins by malachite green dye based method
T2 sequence (whole entry): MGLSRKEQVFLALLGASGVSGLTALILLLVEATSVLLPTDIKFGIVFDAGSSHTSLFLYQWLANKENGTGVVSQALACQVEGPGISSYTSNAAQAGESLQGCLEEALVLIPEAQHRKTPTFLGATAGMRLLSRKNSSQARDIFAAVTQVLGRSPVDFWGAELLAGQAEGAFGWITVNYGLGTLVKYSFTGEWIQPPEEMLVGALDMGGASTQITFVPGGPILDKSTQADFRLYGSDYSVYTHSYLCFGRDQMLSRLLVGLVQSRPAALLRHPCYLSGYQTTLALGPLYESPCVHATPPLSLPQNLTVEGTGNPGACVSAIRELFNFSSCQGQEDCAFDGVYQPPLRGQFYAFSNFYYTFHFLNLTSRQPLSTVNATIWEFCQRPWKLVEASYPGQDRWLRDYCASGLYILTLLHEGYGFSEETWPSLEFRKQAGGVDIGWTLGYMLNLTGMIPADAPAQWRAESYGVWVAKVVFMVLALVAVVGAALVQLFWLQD

[4] = target: P2Y purinoceptor 4 (Homo sapiens) (UniProt P51582); experiment: Agonist activity at human P2Y4 receptor expressed in AD293 cells assessed as inositol-1-phosphate accumulation at 0.1 to 100 uM; assay type: functional, cell-based
[5] = target: T3, Ectonucleoside triphosphate diphosphohydrolase 1 (Homo sapiens) (UniProt P49961); experiment: Inhibition of human NTPdase-1 expressed in COS7 cell membranes at 100 uM using ATP as substrate preincubated for 3 mins followed by susbtrate addition and measured after 10 mins by malachite green dye based method
T3 sequence (whole entry): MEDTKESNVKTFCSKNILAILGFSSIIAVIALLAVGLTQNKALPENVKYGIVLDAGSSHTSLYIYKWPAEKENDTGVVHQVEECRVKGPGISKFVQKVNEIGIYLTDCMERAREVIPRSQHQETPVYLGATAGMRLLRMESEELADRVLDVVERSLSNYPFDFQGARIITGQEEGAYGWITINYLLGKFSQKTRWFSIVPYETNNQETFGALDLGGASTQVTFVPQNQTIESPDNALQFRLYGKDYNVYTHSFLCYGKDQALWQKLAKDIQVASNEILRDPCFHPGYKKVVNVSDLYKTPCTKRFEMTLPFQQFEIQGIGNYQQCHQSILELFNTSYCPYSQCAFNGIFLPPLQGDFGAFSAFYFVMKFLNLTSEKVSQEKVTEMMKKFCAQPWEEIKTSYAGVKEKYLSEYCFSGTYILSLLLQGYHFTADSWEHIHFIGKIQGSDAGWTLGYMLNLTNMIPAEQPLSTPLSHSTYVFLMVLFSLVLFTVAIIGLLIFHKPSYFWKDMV

[6] = target: P2Y purinoceptor 6 (Homo sapiens) (UniProt Q15077); experiment: Antagonist activity at human P2Y6 receptor expressed in AD293 cells assessed as inhibition of UDP-induced inositol-1-phosphate accumulation at 0.1 to 100 uM; assay type: functional, cell-based
P2Y purinoceptor 6 (Homo sapiens), sequence (Q15077 whole entry): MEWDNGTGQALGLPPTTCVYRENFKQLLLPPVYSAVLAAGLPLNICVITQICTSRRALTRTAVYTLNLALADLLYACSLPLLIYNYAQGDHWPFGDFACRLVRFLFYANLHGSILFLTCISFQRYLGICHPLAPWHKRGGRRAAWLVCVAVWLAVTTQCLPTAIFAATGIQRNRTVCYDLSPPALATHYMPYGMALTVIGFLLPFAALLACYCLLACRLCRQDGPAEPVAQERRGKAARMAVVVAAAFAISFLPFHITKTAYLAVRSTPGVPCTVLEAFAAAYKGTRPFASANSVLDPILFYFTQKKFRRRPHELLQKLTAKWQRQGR

[7] = target: T4, Ectonucleoside triphosphate diphosphohydrolase 2 (Homo sapiens) (UniProt Q9Y5L3); experiment: Inhibition of human NTPdase-2 expressed in COS7 cell membranes at 100 uM using ATP as substrate preincubated for 3 mins followed by susbtrate addition and measured after 10 mins by malachite green dye based method
T4 sequence (whole entry): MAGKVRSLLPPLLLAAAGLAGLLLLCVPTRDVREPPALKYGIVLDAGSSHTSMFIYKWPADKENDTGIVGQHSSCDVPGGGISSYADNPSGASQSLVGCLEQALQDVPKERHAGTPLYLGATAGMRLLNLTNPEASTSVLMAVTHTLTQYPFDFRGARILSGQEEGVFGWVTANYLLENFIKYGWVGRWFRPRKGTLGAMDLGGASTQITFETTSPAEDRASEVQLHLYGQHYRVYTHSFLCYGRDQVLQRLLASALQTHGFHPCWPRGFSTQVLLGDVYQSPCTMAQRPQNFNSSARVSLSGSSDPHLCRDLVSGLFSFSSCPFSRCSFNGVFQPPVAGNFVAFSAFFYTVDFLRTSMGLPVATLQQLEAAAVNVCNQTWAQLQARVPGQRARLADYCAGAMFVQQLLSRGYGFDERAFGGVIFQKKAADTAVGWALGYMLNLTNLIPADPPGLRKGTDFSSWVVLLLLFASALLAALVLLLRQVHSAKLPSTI

[8] = target: P2Y purinoceptor 2 (Homo sapiens) (UniProt P41231); experiment: Agonist activity at human P2Y2 receptor expressed in AD293 cells assessed as inositol-1-phosphate accumulation at 100 uM; assay type: functional, cell-based
P2Y purinoceptor 2 (Homo sapiens), sequence (P41231 whole entry): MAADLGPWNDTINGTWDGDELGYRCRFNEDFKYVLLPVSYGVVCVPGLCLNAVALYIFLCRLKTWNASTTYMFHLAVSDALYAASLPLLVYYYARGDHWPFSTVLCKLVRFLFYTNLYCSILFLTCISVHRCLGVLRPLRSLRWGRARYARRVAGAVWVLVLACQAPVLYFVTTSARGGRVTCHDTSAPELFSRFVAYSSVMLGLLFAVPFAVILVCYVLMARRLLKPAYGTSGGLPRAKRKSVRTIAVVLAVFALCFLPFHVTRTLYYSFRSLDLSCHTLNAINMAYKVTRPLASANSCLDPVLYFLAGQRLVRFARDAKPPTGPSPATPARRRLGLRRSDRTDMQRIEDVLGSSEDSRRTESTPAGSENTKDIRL

[9] = target: P2Y purinoceptor 6 (Homo sapiens) (UniProt Q15077); experiment: Agonist activity at human P2Y6 receptor expressed in AD293 cells assessed as inositol-1-phosphate accumulation at 100 uM; assay type: functional, cell-based

| Structure (SMILES) | inhibition [1] | inhibition [2] | Inhibition call (active/not active) [3] | Activity [4] | inhibition call at 100 uM (active/not active) [5] | inhibition [6] | inhibition [7] | Activity [8] | Activity [9] |
| --- | --- | --- | --- | --- | --- | --- | --- | --- | --- |
| O=c1ccn(COCCO[PH](=O)O)c(=O)[nH]1 | inactive | inactive | inactive | inactive | inactive | inactive | inactive | inactive | – |
| O=c1ccn(COCCOP(=S)(S)OP(=O)(O)CP(=O)(O)O)c(=O)[nH]1 (stereo not given) | inactive | Active | Active | inactive | Active | inactive | Active | inactive | Active |
| O=c1ccn(COCCOP(=S)(S)OP(=O)(O)C(Cl)(Cl)P(=O)(O)O)c(=O)[nH]1 (stereo not given) | inactive | Active | Active | inactive | Active | inactive | Active | inactive | Active |
| O=c1ccn(COCCOP(=O)(O)O)c(=O)[nH]1 | inactive | inactive | inactive | inactive | inactive | inactive | inactive | inactive | – |
| O=c1ccn(COCCOP(=O)(O)CP(=O)(O)O)c(=O)[nH]1 | inactive | Active | Active | inactive | Active | inactive | Active | – | Active |
| O=c1ccn(COCCOP(=O)(O)C(Cl)(Cl)P(=O)(O)O)c(=O)[nH]1 | inactive | Active | Active | inactive | Active | inactive | Active | inactive | – |
